Reference: patent publication US20020072601A1, “Method for forming amino acid derivatives from tricyclic diketopiperazines” (University of Southern Mississippi, priority 2000, published 2002)

Assay: Gelation studies: minimum concentration needed for solvent gelation
Format: physicochemical
Details: cooled to room temperature
Description: The ring-opening reaction of PyDKP with certain nucleophiles (Reaction 3) forms a class of pyroglutamate derivatives that gel organic solvents. In these experiments, the solubility and minimum concentration needed for solvent gelation were determined. Tetradecyl pyroglutamide was placed in various solvents which were then heated to their boiling point, except silicone and soybean oil, which were heated to 150° C. to prevent decomposition of the gelator. In most cases, regardless of partial insolubility in some instances, the various solvents formed immobile gels upon cooling to room temperature. All of the gels were thermoreversible, meaning the gel would revert back to liquid with the application of heat and then reform with cooling.

gel Concentration (1-Propanol): 50 g/L
gel Concentration (Acetonitrile): 15 g/L
gel Concentration (Benzene): 100 g/L
gel Concentration (Butanol): 100 g/L
gel Concentration (Chloroform): 160 g/L
gel Concentration (Dichioromethane): 50 g/L
gel Concentration (Ethanol): 30 g/L
gel Concentration (Methanol): 30 g/L
gel Concentration (Silicone Oil): 11 g/L
gel Concentration (Soybean Oil): 11 g/L
Compound: CCCCCCCCCCCCCCNC(=O)[C@@H]1CCC(=O)N1 [N-tetradecyl pyroglutamide, N-Pyroglutamyl tetradecylamine]
